Literature values, collected in patent US20250099475A1, “METHODS OF TREATING HYPERTENSION BY PERIODIC SUPPRESSION OF ALDOSTERONE SYNTHASE” (Mineralys Therapeutics, Inc., priority 2022, published 2025).

Details: in vivo; cited from earlier work

In the case of CC(=O)S[C@@H]1CC2=CC(=O)CC[C@]2(C)[C@H]2CC[C@@]3(C)[C@@H](CC[C@@]34CCC(=O)O4)[C@H]12 [Spironolactone], the risk of hyperkalemia is listed as no more than 10%.
